# Measurements taken from US9023408B2, “Composition and method for control of diabetes” (Meyer Nutriceuticals LLC, priority 2009, dated 2015).
# Legend:
# [1] = human, in vivo
# Method: An additional gram of pellets was added to the dose; and the additional pellets had been surface-labeled with 99m-Tc-polymethylmethacrylate (these additional pellets could not release their contents), so that the positions of the pellets with time could be followed with a gamma camera. The releasing pellets also contained 5% (w/w) APAP which is rapidly and completely absorbed from small or large bowel, even in the presence of food. The APAP served as a pharmacokinetic marker. Subjects ate a free-choice meal at 241 min. Finally, PYY levels (see FIG. 4b) were followed on CTM and also on control days when four of the eight subjects shown in FIG. 4a consumed the standard breakfast at t=0 and a free choice lunch at t=241 min, but no pellets of CTM #3. Because lauric acid released from CTM #3 cannot be distinguished in plasma from dietary and endogenous lauric acid, assays of plasma PYY served as a surrogate for the release of bioactive lauric acid, which is known to be a potent stimulus of secretion of PYY and GLP-1 from L cells. To compare the time-courses of basal subtracted PYY measurements with those of APAP, analytical values for APAP were scaled up so that they equaled the peak PYY at 300 min.
# From 240-300 minutes, the pellets began to empty from the ileum, so that by 300 min, there were few pellets in the small bowel, and the majority of pellets was now in the colon. […]
# [2] = system: GLP-1; assay: Placebo-controlled double-blinded study in type 2 diabetes: plasma GLP-1; design: species or system human; settings: in vivo
# Method: FIGS. 6 and 7 depict the effect of CTM #3 versus placebo on blood glucose in a randomized, placebo-controlled, double-blinded study in 10 subjects with mild to moderate type 2 diabetes. After an overnight fast, subjects ingested 10 g of placebo pellets or CTM #3 pellets with the same standard breakfast as above (415 kcal; 71 g of carbohydrate) followed by a standard lunch at 240 min (708 kcal; 89 g of carbohydrate). […] The higher calorie lunch raised GLP-1s more than the breakfast on placebo days; and the CTM raised the post lunch GLP-1s even more. […] Using a similar calculation as used above for PYY, the per-calorie effectiveness of the lauric acid in CTM #3 in boosting the GLP-1 response to the meal was 77 times that of the calories in the breakfast.
# For comparisons, the APAP levels have been scaled up so that their value equaled that of the GLP-1 peak at 270 min. […] The diabetic subjects were older than the normal subjects, and four of them had mild vagal neuropathy which might have contributed to slower gastric emptying. […]
# The GLP-1 values (vertical axis) following the CTM treatment are expressed as a percent of the corresponding value at each time point following the placebo treatment, so that any value above the horizontal 100% line represents the effect of lauric acid released from the CTM #3. […]
# [3] = U.S.P. in vitro dissolution test (rotating basket); settings: uncoated cores of CTM #3
structure (smiles),measurement,setting,value
CCCCCCCCCCCC(=O)O [lauric acid],duration of slow release from the dosage form after ingestion,[1],330 to 360 min
same,per calorie potency relative to dietary nutrients in releasing GLP-1 and PYY,[2],77-150 times
same,solubility in simulated bile (bile salts and lecithin) at pH 6.2,[3]; pH 6.2,only half as soluble as maltose
same,"solubility compared with maltose, bile-free medium",[3]; pH 6.2 1 h then pH 7.2 3 h,much less soluble than maltose
same,solubility in simulated bile (bile salts and lecithin) at pH 7.2,[3]; pH 7.2,as soluble as maltose or APAP
